Test system: P12-Ichikawa
Test: cell viability relative to DMSO control; higher = less cytotoxic
Conditions: 48 h
Summary of the method: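 NOMO1 or SEM cells were plated at 500 cells/well and P12-Ichikawa cells at 1000 cells/well in 1536-well plates (5 μl), after each leukemia line had been adapted for at least four passages in each medium. Pin dosing delivered library compounds in DMSO at 11 threefold concentrations, 47 μM to 0.79 nM. CellTiter-Glo One luminescence was read after 48 h at 37°C. Viability is reported as a per-plate percentage of DMSO wells, with cell-free wells as background.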

[1] = HPLM + 10% dialyzed FBS, 0.000781 µM
[2] = HPLM + 10% dialyzed FBS, 0.00234 µM
[3] = HPLM + 10% dialyzed FBS, 0.00702 µM
[4] = HPLM + 10% dialyzed FBS, 0.0211 µM
[5] = HPLM + 10% dialyzed FBS, 0.0632 µM
[6] = HPLM + 10% dialyzed FBS, 0.19 µM
[7] = HPLM + 10% dialyzed FBS, 0.569 µM
[8] = HPLM + 10% dialyzed FBS, 1.71 µM
[9] = HPLM + 10% dialyzed FBS, 5.12 µM
[10] = HPLM + 10% dialyzed FBS, 15.4 µM
[11] = HPLM + 10% dialyzed FBS, 46.1 µM
[12] = RPMI 5 mM glucose + 10% FBS, 0.000781 µM
[13] = RPMI 5 mM glucose + 10% FBS, 0.00234 µM
[14] = RPMI 5 mM glucose + 10% FBS, 0.00702 µM
[15] = RPMI 5 mM glucose + 10% FBS, 0.0211 µM
[16] = RPMI 5 mM glucose + 10% FBS, 0.0632 µM
[17] = RPMI 5 mM glucose + 10% FBS, 0.19 µM
[18] = RPMI 5 mM glucose + 10% FBS, 0.569 µM
[19] = RPMI 5 mM glucose + 10% FBS, 1.71 µM
[20] = RPMI 5 mM glucose + 10% FBS, 5.12 µM
[21] = RPMI 5 mM glucose + 10% FBS, 15.4 µM
[22] = RPMI 5 mM glucose + 10% FBS, 46.1 µM
[23] = RPMI 5 mM glucose + 10% dialyzed FBS, 0.000781 µM
[24] = RPMI 5 mM glucose + 10% dialyzed FBS, 0.00234 µM
[25] = RPMI 5 mM glucose + 10% dialyzed FBS, 0.00702 µM
[26] = RPMI 5 mM glucose + 10% dialyzed FBS, 0.0211 µM
[27] = RPMI 5 mM glucose + 10% dialyzed FBS, 0.0632 µM
[28] = RPMI 5 mM glucose + 10% dialyzed FBS, 0.19 µM
[29] = RPMI 5 mM glucose + 10% dialyzed FBS, 0.569 µM
[30] = RPMI 5 mM glucose + 10% dialyzed FBS, 1.71 µM
[31] = RPMI 5 mM glucose + 10% dialyzed FBS, 5.12 µM
[32] = RPMI 5 mM glucose + 10% dialyzed FBS, 15.4 µM
[33] = RPMI 5 mM glucose + 10% dialyzed FBS, 46.1 µM

| SMILES | cell viability [1] | cell viability [2] | cell viability [3] | cell viability [4] | cell viability [5] | cell viability [6] | cell viability [7] | cell viability [8] | cell viability [9] | cell viability [10] | cell viability [11] | cell viability [12] | cell viability [13] | cell viability [14] | cell viability [15] | cell viability [16] | cell viability [17] | cell viability [18] | cell viability [19] | cell viability [20] | cell viability [21] | cell viability [22] | cell viability [23] | cell viability [24] | cell viability [25] | cell viability [26] | cell viability [27] | cell viability [28] | cell viability [29] | cell viability [30] | cell viability [31] | cell viability [32] | cell viability [33] |
| --- | --- | --- | --- | --- | --- | --- | --- | --- | --- | --- | --- | --- | --- | --- | --- | --- | --- | --- | --- | --- | --- | --- | --- | --- | --- | --- | --- | --- | --- | --- | --- | --- | --- |
| CCOC(=O)[C@H](CCc1ccccc1)N[C@@H](C)C(=O)N1CCC[C@H]1C(=O)O | 120% | 108% | 116% | 111% | 102% | 117% | 112% | 109% | 108% | 97.8% | 106% | 118% | 117% | 107% | 111% | 113% | 113% | 108% | 111% | 108% | 98.1% | 101% | 114% | 111% | 106% | 110% | 113% | 116% | 105% | 121% | 104% | 108% | 102% |
| O=C1Nc2ccc(Cl)cc2[C@@](C#CC2CC2)(C(F)(F)F)O1 | 81.8% | 91.9% | 90.5% | 90.6% | 90.2% | 91.1% | 91.1% | 92.1% | 96.2% | 95% | 80% | 78.3% | 94.4% | 78.6% | 76.2% | 85.5% | 83.1% | 91.6% | 85% | 84.5% | 85.1% | 55.4% | 73.8% | 77.7% | 80.5% | 88.6% | 80.8% | 85.1% | 78.4% | 77.7% | 79.8% | 79% | 61.8% |
| CN1CCC(CC1)COC2=CN=C(N=C2)C3=CC(=CC=C3)CN4/N=C(\C=C/C4=O)C5=CC(=CC=C5)C#N | 103% | 112% | 112% | 114% | 119% | 112% | 114% | 123% | 113% | 112% | 105% | 107% | 113% | 111% | 102% | 122% | 118% | 118% | 111% | 123% | 112% | 113% | 117% | 112% | 119% | 112% | 130% | 123% | 131% | 120% | 118% | 121% | 122% |
| OC[C@H]1O[C@H]([C@@H](F)[C@@H]1O)N2\C=C/C(=O)NC2=O | 110% | 108% | 108% | 110% | 108% | 112% | 114% | 102% | 99.6% | 98% | 94.1% | 99% | 108% | 108% | 91.6% | 97.9% | 114% | 106% | 102% | 92.1% | 102% | 106% | 109% | 93.5% | 104% | 100% | 99.4% | 97% | 105% | 96% | 93.6% | 93.5% | 88.6% |
| CC(=O)CC(C1=CC=CC=C1)C/2=C(O)/C3=CC=CC=C3OC2=O (stereo not drawn) | 106% | 112% | 108% | 117% | 111% | 125% | 123% | 120% | 113% | 118% | 123% | 105% | 120% | 130% | 128% | 130% | 132% | 132% | 127% | 128% | 132% | 124% | 106% | 122% | 116% | 125% | 128% | 127% | 125% | 121% | 132% | 132% | 129% |
| NC(=O)c1ncn([C@@H]2O[C@H](CO)[C@@H](O)[C@H]2O)n1 | 122% | 120% | 102% | 109% | 110% | 118% | 116% | 111% | 96.3% | 82% | 76.1% | 116% | 121% | 115% | 123% | 122% | 103% | 112% | 104% | 88.3% | 79.4% | 62.8% | 115% | 107% | 123% | 115% | 120% | 100% | 106% | 105% | 82.4% | 69.3% | 62.5% |
| CC(C)Nc1cc(C(F)(F)F)cc2nc(NC(=O)c3cccnc3)nn12 | 113% | 115% | 117% | 116% | 108% | 107% | 108% | 10.1% | 12.6% | 14.6% | 33.5% |  |  |  |  |  |  |  |  |  |  |  | 121% | 115% | 113% | 113% | 116% | 114% | 111% | 28.2% | 24.1% | 24.9% | 37% |
| O=C(CO)N1CCC(c2n[nH]c(-c3ccc(Cl)cc3)c2-c2ccncn2)CC1 | 119% | 104% | 113% | 112% | 113% | 109% | 105% | 100% | 97.7% | 55.7% | 68.4% | 117% | 112% | 118% | 122% | 114% | 113% | 114% | 110% | 87.8% | 24% | 58.5% | 122% | 116% | 114% | 116% | 117% | 114% | 113% | 101% | 97.7% | 21.7% | 55.4% |
